Reference: EP0316212B1 (priority 1987, dated 1989)
Like-named read-outs stand apart in the source and are kept apart here.

How the values were obtained:
[1] = tested on: virus de la chorioméningite lymphocytaire (CML); test: organism not typed; type: cell-based; settings: for % Inhibition: préincubés avec les cellules L929
[2] = tested on: VSV (Vesicular Stomatitis Virus); test: microbe, parasite or virus in culture; type: cell-based
Cellules T = test: Proliferation of mouse T cells (3H-thymidine incorporation); type: cell-based, souris; settings: for inhibition at 200 µg/mL: T-cell, read-out: pourcentage d'augmentation (+) ou d'inhibition (-) de la prolifération
Excerpt: (§1) Les anticorps utilisés sont des anticorps monoclonaux (AM) naturels (N5-12, N5-17, MO-1, 62-1, D-23) et proviennent d'hybridomes préparés par fusion des cellules de rate de souris n'ayant reçu aucune immunisation au préalable ni aucune stimulation mitogénique, avec le myélome de souris X63-Ag8. Les hybridomes TNP11 et TNP9 proviennent de fusion des cellules de rate de souris immunisées avec du Ficoll-TNP. Ils ont été maintenus en culture dans le milieu RPMI complet contenant 10% de sérum de veau foetal. Les hybridomes ont été injectés à des souris Balb/c préalablement traitées au pristane dans le but d'obtenir des ascites. Les AM ont été utilisés en tant que surnageants de culture ou en tant qu'ascites ou après isolement par chromatographie d'affinité sur une colonne de DNP-Sépharose. Ces anticorps ont été testés par test immunoenzymatique sur différents antigènes immobilisés sur des plaques de polystyrène et révélés par un anticorps anti-Ig de souris couplé à la β-galactosidase.
(§2) Le TNP a été couplé à la sérumalbumine bovine (BSA) par la méthode de Little & Eisen : 1ml de BSA à 20mg/ml dans le tampon carbonate-bicarbonate, 0,1M, pH 9,5, est ajouté à 1ml d'une solution d'acide trinitrobenzène sulfonique à 2 mg/ml dans le même tampon. La réaction est arrêtée après 30 à 120 minutes selon la substitution voulue par élimination de l'excès de réactifs sur échangeur d'ions (Dowex 1 x 4) puis dialyse. Des préparations de BSA substituée avec soit 14 ou 30 molécules de TNP par molécule de BSA (TNP₁₄-BSA ou TNP₃₀-BSA) ont été utilisées.
(§3) Le DNP-Glycine (DNP-Gly) et le DNP-Lysine (DNP-Lys) proviennent des Laboratoires Sigma et sont solubilisés directement dans le milieu de culture.
(§4) Les cellules proviennent de rate ou de thymus de souris. Les souris sont tuées par dislocation cervicale et leur rate ou leur thymus prélevé stérilement sont déposés dans du milieu RPMI. Les cellules sont dissociées, lavées une fois avec du milieu puis les globules rouges sont lysés au chlorure d'ammonium (0,9%) pendant 1 minute à froid puis les cellules sont relavées dans le milieu complet.
Les sous-populations de cellules B ou T sont ensuite séparées comme suit : • Sous-population T : les cellules T sont obtenues à partir de la population de cellules de la rate par élimination des cellules portant des Ig à leur surface (sous-population B) sur des anticorps anti-Ig de souris immobilisés soit sur des billes magnétiques (Magnogel)® soit sur des boites de Pétri. • Sous-population B : les cellules B sont obtenues après détachement mécanique des supports dur lesquels elles étaient fixées par l'intermédiaire des anticorps anti-Ig (après l'isolement des cellules T), ou après élimination de la sous-population des cellules T de la population totale des cellules de rate par un traitement avec un anticorps anti-cellules T suivi de complément de cobaye. • Thymocytes : les thymocytes sont dissociés dans le RPMI et les cellules isolées sont lavées dans le milieu complet avant d'être mises en culture.
(§5) Le milieu de culture utilisé est du RPMI 1640 contenant du sérum de veau foetal (5%), du pyruvate de sodium (1mM), de la L-glutamine (1mM), du 2-mercaptoethanol (0,05 mM), de la pénicilline (100»g/ml) et de la streptomycine (50»g/ml).
(§6) 2x10⁵ cellules de chaque population cellulaire ou 4x10⁵ de cellules de rate non fractionnées sont distribuées sous un volume final de 200»l dans des boîtes de culture de 96 puits à fond plat en présence ou non des différents stimulateurs (ou mitogènes)(40»g/ml de lipopolysaccharide W Salmonella typhosa 2»g/ml de concanavaline A, ou des surnageants de culture contenant les anticorps monoclonaux à différentes dilutions ou une solution de TNP-BSA à des concentrations finales allant de 200ng à 200»g/ml). Les cultures sont effectuées pendant 48 à 96 heures à 37°C dans une atmosphère de 5% de CO2.
Six à huit heures avant la fin de la culture, 100»l de surnageant sont prélevés de chaque puits de culture afin d'être testés quant à leur contenu en anticorps. […]

Cellules de rate = test: Proliferation of mouse spleen cells (3H-thymidine incorporation); type: cell-based, souris; settings: for inhibition at 200 µg/mL: read-out: pourcentage d'augmentation (+) ou d'inhibition (-) de la prolifération
Excerpt: as §1, §2, §3, §4, §5, §6
Six à huit heures avant la fin de la culture, 100»l de surnageant sont prélevés de chaque puits de culture afin d'être testés quant à leur contenu en anticorps. 10»l d'une solution de ³H-thymidine (activité spécifique = […]) à 50 »Ci/ml sont ajoutés à la culture qui est ensuite poursuivie. Les cellules de chaque puits sont collectées sur du papier filtre à l'aide d'un collecteur automatique et, après sèchage, les filtres sont comptés dans un liquide scintillant.

[3] = tested on: HVE (Herpes Virus Eidolon); test: Plaque method, neutralisation of HVE by coupled NP (TCC31 cells); type: cell-based
Excerpt: L'effet des NP couplés (TNP-BSA, DNP-Glycine) a été évalué par la méthode des plages, comme pour le virus de la chorioméningite lymphocytaire dans l'exemple I. L'effet neutralisant des NP couplés a été évalué sur les virus enveloppés ou non enveloppés suivants :
C'est un virus de l'herpès à double brin d'ADN que l'on cultive sur des cellules TCC31 de souris. Les résultats sont observés après 2 Jours de culture.
Pour tous les virus testés, les dilutions des virus donnaient 50 plages/cupule.

[4] = Vesicular stomatitis virus, L929
[5] = 0,7 (µg/ml), conA* (mitogène ajouté après 48 heures)
[6] = 3 (µg/ml), conA* (mitogène ajouté après 48 heures)
[7] = 12 (µg/ml), conA* (mitogène ajouté après 48 heures)
[8] = 50 (µg/ml), conA* (mitogène ajouté après 48 heures)
[9] = 200µg/ml, conA* (mitogène ajouté après 48 heures)
[10] = 200µg/ml, LPS* (mitogène ajouté après 48 heures avec le dérivé NP)
[11] = 200µg/ml, conA* (mitogène ajouté après 48 heures avec le dérivé NP)
[12] = 12 (µg/ml), LPS* (mitogène ajouté après 48 heures)
[13] = 50 (µg/ml), LPS* (mitogène ajouté après 48 heures)

Molecule: O=C(O)CNc1ccc([N+](=O)[O-])cc1[N+](=O)[O-] [DNP-glycine, DNP-Glycine]
- inhibition at 10 µg/mL ([1]; L929): 25%
- inhibition at 30 µg/mL ([1]; L929): 80%
- inhibition at 60 µg/mL ([1]; L929): 15%
- inhibition at 120 µg/mL ([1]; L929): 30%
- inhibition at 240 µg/mL ([1]; L929): 25%
- inhibition at 480 µg/mL ([1]; L929): 55%
- inhibition at 30 µg/mL [2, 4]: 0%
- inhibition at 70 µg/mL [2, 4]: 0%
- inhibition at 150 µg/mL [2, 4]: 6%
- inhibition at 300 µg/mL [2, 4]: 38%
- inhibition at 600 µg/mL [2, 4]: 47%
- inhibition at 1200 µg/mL [2, 4]: 68%
- inhibition at 2400 µg/mL [2, 4]: 41%
- minimal effective concentration ([2]; Vesicular stomatitis virus, L929, 72 h, read-out: a un effet jusqu'à une concentration de): 1200 µg/mL
- pourcentage d'augmentation (+) ou d'inhibition (-) de la prolifération (Cellules T; 0,7 (µg/ml), M (milieu seul)): +50%
- pourcentage d'augmentation (+) ou d'inhibition (-) de la prolifération (Cellules T; [5]): 0%
- pourcentage d'augmentation (+) ou d'inhibition (-) de la prolifération (Cellules T; 3 (µg/ml), M (milieu seul)): 0%
- pourcentage d'augmentation (+) ou d'inhibition (-) de la prolifération (Cellules T; [6]): -5%
- pourcentage d'augmentation (+) ou d'inhibition (-) de la prolifération (Cellules T; 12 (µg/ml), M (milieu seul)): 0%
- pourcentage d'augmentation (+) ou d'inhibition (-) de la prolifération (Cellules T; [7]): -4%
- pourcentage d'augmentation (+) ou d'inhibition (-) de la prolifération (Cellules T; 50 (µg/ml), M (milieu seul)): +30%
- pourcentage d'augmentation (+) ou d'inhibition (-) de la prolifération (Cellules T; [8]): -15%
- inhibition at 200 µg/mL (Cellules T; 200µg/ml, M (milieu seul)): 4%
- inhibition at 200 µg/mL (Cellules T; [9]): -45%
- inhibition at 200 µg/mL (Cellules de rate; [10]): -60%
- inhibition at 200 µg/mL (Cellules de rate; 200µg/ml, M (milieu seul)): -64%
- inhibition at 200 µg/mL (Cellules de rate; [11]): -50%
- pourcentage d'augmentation (+) ou d'inhibition (-) de la prolifération (Cellules de rate; [12]): 0%
- pourcentage d'augmentation (+) ou d'inhibition (-) de la prolifération (Cellules de rate; 12 (µg/ml), M (milieu seul)): -10%
- pourcentage d'augmentation (+) ou d'inhibition (-) de la prolifération (Cellules de rate; [7]): -30%
- pourcentage d'augmentation (+) ou d'inhibition (-) de la prolifération (Cellules de rate; [13]): -20%
- pourcentage d'augmentation (+) ou d'inhibition (-) de la prolifération (Cellules de rate; 50 (µg/ml), M (milieu seul)): -30%
- pourcentage d'augmentation (+) ou d'inhibition (-) de la prolifération (Cellules de rate; [8]): 0%
- inhibition at 300 µg/mL ([3]; 0,3 mg/ml): 48%
- inhibition at 600 µg/mL ([3]; 0,6 mg/ml): 50%
- inhibition at 70 µg/mL ([3]; 0,07 mg/ml): 28%
- inhibition at 150 µg/mL ([3]; 0,15 mg/ml): 40%
- inhibition at 1200 µg/mL ([3]; 1,2 mg/ml): 57%
- inhibition at 2400 µg/mL ([3]; 2,4 mg/ml): 92%
- minimal effective concentration ([3]; 48 h, lowest concentration stated as seroneutralising, virus HVE, read-out: peut séroneutraliser le virus jusqu'à une concentration de): 600 µg/mL

Molecule: TNP-BSA
- % Inhibition ([1]; 0.12 mg/ml): 0%
- % Inhibition ([1]; 0.25 mg/ml): 22%
- % Inhibition ([1]; 0.5 mg/ml): 48%
- % Inhibition ([1]; 1 mg/ml): 63%
- % Inhibition ([2]; 0,03 mg/ml): 0%
- % Inhibition ([2]; 0,5 mg/ml): 12%
- % Inhibition ([2]; 0,06 mg/ml): 0%
- % Inhibition ([2]; 0,12 mg/ml): 0%
- % Inhibition ([2]; 0,25 mg/ml): 0%
- % Inhibition ([2]; 1,0 mg/ml): 15%
- % Inhibition ([2]; 2,0 mg/ml): 24%
- pourcentage d'augmentation (+) ou d'inhibition (-) de la prolifération (Cellules T; 0,7 (µg/ml), M (milieu seul)): 0%
- pourcentage d'augmentation (+) ou d'inhibition (-) de la prolifération (Cellules T; [5]): -50%
- pourcentage d'augmentation (+) ou d'inhibition (-) de la prolifération (Cellules T; 200µg/ml, M (milieu seul)): +30%
- pourcentage d'augmentation (+) ou d'inhibition (-) de la prolifération (Cellules T; [9]): -50%
- pourcentage d'augmentation (+) ou d'inhibition (-) de la prolifération (Cellules T; 3 (µg/ml), M (milieu seul)): 0%
- pourcentage d'augmentation (+) ou d'inhibition (-) de la prolifération (Cellules T; [6]): -40%
- pourcentage d'augmentation (+) ou d'inhibition (-) de la prolifération (Cellules T; 12 (µg/ml), M (milieu seul)): +20%
- pourcentage d'augmentation (+) ou d'inhibition (-) de la prolifération (Cellules T; [7]): -20%
- pourcentage d'augmentation (+) ou d'inhibition (-) de la prolifération (Cellules T; 50 (µg/ml), M (milieu seul)): +18%
- pourcentage d'augmentation (+) ou d'inhibition (-) de la prolifération (Cellules T; [8]): -25%
- pourcentage d'augmentation (+) ou d'inhibition (-) de la prolifération (Cellules de rate; [10]): +30%
- pourcentage d'augmentation (+) ou d'inhibition (-) de la prolifération (Cellules de rate; 200µg/ml, M (milieu seul)): +50%
- pourcentage d'augmentation (+) ou d'inhibition (-) de la prolifération (Cellules de rate; [11]): +46%
- pourcentage d'augmentation (+) ou d'inhibition (-) de la prolifération (Cellules de rate; [12]): 0%
- pourcentage d'augmentation (+) ou d'inhibition (-) de la prolifération (Cellules de rate; 12 (µg/ml), M (milieu seul)): +10%
- pourcentage d'augmentation (+) ou d'inhibition (-) de la prolifération (Cellules de rate; [7]): +28%
- pourcentage d'augmentation (+) ou d'inhibition (-) de la prolifération (Cellules de rate; [13]): +20%
- pourcentage d'augmentation (+) ou d'inhibition (-) de la prolifération (Cellules de rate; 50 (µg/ml), M (milieu seul)): +30%
- pourcentage d'augmentation (+) ou d'inhibition (-) de la prolifération (Cellules de rate; [8]): +30%
- % Inhibition ([3]; 0,03 mg/ml): 0%
- % Inhibition ([3]; 0,5 mg/ml): 55%
- % Inhibition ([3]; 0,06 mg/ml): 5%
- % Inhibition ([3]; 0,12 mg/ml): 16%
- % Inhibition ([3]; 0,25 mg/ml): 35%
- % Inhibition ([3]; 1,0 mg/ml): 79%
